Measured values as given in ChEMBL document CHEMBL5113477, “Membrane acting Povarov-Doebner derived compounds potently disperse preformed multidrug resistant Gram-positive bacterial biofilms” (Eur J Med Chem, 2022).
In brackets after ≈: the same amount, converted by molar mass. Activity calls are given as the source filed them. The calls are words filed in the database; no cut-off is given here.

Experiments:
Staphylococcus aureus [1] = assay: Synergistic antibiofilm activity against methicillin-resistant Staphylococcus aureus USA 300 in TSB broth assessed as dispersal of glucose-induced biofilm by measuring Bithionol MBEC preincubated with glucose for 48 hrs followed by compound addition and measured after 24 hrs by crystal violet staining based checkerboard assay; format: functional
Enterococcus faecium [2] = assay: Synergistic antibiofilm activity against vancomycin-resistant Enterococcus faecium ATCC 700221 in TSB broth assessed as dispersal of glucose-induced biofilm at 1 ug/ml preincubated with glucose for 48 hrs followed by compound addition and further incubated for 24 hrs in presence of 1 ug/ml Bithionol and AgNO3 by crystal violet staining based analysis; format: functional; conditions: dose 1 µg/ml
Staphylococcus aureus [3] = assay: Synergistic antibiofilm activity against methicillin-resistant Staphylococcus aureus USA 300 in TSB broth assessed as dispersal of glucose-induced biofilm at 1 ug/ml preincubated with glucose for 48 hrs followed by compound addition and further incubated for 24 hrs in presence of 1 ug/ml Bithionol and AgNO3 by crystal violet staining based analysis; format: functional; conditions: dose 1 µg/ml
Staphylococcus aureus [4] = assay: Antibacterial activity against methicillin-resistant Staphylococcus aureus USA 300 (ARLG 1649) assessed as reduction in visible bacterial growth incubated for 18 to 20 hrs by CLSI based broth microdilution analysis; format: functional; conditions: time 18-20 hrs
Enterococcus faecium [5] = assay: Synergistic antibiofilm activity against vancomycin-resistant Enterococcus faecium ATCC 700221 in TSB broth assessed as dispersal of glucose-induced biofilm by measuring fractional inhibitory concentration index preincubated with glucose for 48 hrs followed by compound addition and further incubated for 24 hrs in presence of Bithionol by crystal violet staining based checkerboard assay; format: functional
Enterococcus faecium [6] = assay: Synergistic antibiofilm activity against vancomycin-resistant Enterococcus faecium ATCC 700221 in TSB broth assessed as dispersal of glucose-induced biofilm preincubated with glucose for 48 hrs followed by compound addition and further incubated for 24 hrs in presence of Bithionol by crystal violet staining based checkerboard assay; format: functional
Staphylococcus aureus [7] = assay: Antibacterial activity against methicillin-resistant Staphylococcus aureus USA 300 (ARLG 1561) assessed as reduction in visible bacterial growth incubated for 18 to 20 hrs by CLSI based broth microdilution analysis; format: functional; conditions: time 18-20 hrs
Enterococcus faecalis [8] = assay: Synergistic antibiofilm activity against vancomycin-resistant Enterococcus faecalis ATCC 51575 in TSB broth assessed as dispersal of glucose-induced biofilm by measuring Bithionol MBEC preincubated with glucose for 48 hrs followed by compound addition and measured after 24 hrs by crystal violet staining based checkerboard assay; format: functional
Staphylococcus aureus [9] = assay: Synergistic antibiofilm activity against methicillin-resistant Staphylococcus aureus USA 300 in TSB broth assessed as dispersal of glucose-induced biofilm by measuring fractional inhibitory concentration index preincubated with glucose for 48 hrs followed by compound addition and further incubated for 24 hrs in presence of Bithionol by crystal violet staining based checkerboard assay; format: functional
Cell membrane = assay: Induction of cell membrane disruption in Staphylococcus aureus ATCC 25923 assessed as appearance of hairy protrusions at 2 ug/ml incubated for 30 mins by SEM analysis; format: subcellular; conditions: dose 2.0 µg/ml
Enterococcus faecium [10] = assay: Synergistic antibiofilm activity against vancomycin-resistant Enterococcus faecium ATCC 700221 in TSB broth assessed as dispersal of glucose-induced biofilm preincubated with glucose for 48 hrs followed by compound addition and further incubated for 24 hrs in presence of Nitroxoline by crystal violet staining based checkerboard assay; format: functional
Staphylococcus aureus [11] = assay: Antibacterial activity against methicillin-resistant Staphylococcus aureus USA 300 (ARLG 1665) assessed as reduction in visible bacterial growth incubated for 18 to 20 hrs by CLSI based broth microdilution analysis; format: functional; conditions: time 18-20 hrs
Staphylococcus aureus [12] = assay: Antibiofilm activity against methicillin-resistant Staphylococcus aureus USA 300 in TSB broth assessed as dispersal of glucose-induced biofilm at 8 to 16 ug/ml preincubated with glucose for 48 hrs followed by compound addition and measured after 24 hrs by crystal violet staining based analysis; format: functional; conditions: dose 8-16 µg/ml, at 8 to 16 µg/mL
Staphylococcus aureus [13] = assay: Antibacterial activity against methicillin-resistant Staphylococcus aureus ATCC 33592 assessed as reduction in visible bacterial growth incubated for 18 to 20 hrs by CLSI based broth microdilution analysis; format: functional; conditions: time 18-20 hrs
Enterococcus faecium [14] = assay: Synergistic antibiofilm activity against vancomycin-resistant Enterococcus faecium ATCC 700221 in TSB broth assessed as dispersal of glucose-induced biofilm by measuring fractional inhibitory concentration index preincubated with glucose for 48 hrs followed by compound addition and further incubated for 24 hrs in presence of Nitroxoline by crystal violet staining based checkerboard assay; format: functional
Enterococcus faecium [15] = assay: Inhibition of biofilm formation in vancomycin-resistant Enterococcus faecium ATCC 700221 in TSB broth at 0.0078 to 4 ug/ml incubated for 48 hrs in presence of glucose by crystal violet staining based analysis; format: functional, organism-based; conditions: dose 0.0078-4 µg/ml
Staphylococcus aureus [16] = assay: Antibacterial activity against Staphylococcus aureus ATCC 25923 assessed as reduction in visible bacterial growth incubated for 18 to 20 hrs by CLSI based broth microdilution analysis; format: functional; conditions: time 18-20 hrs
Staphylococcus aureus [17] = assay: Antibiofilm activity against methicillin-resistant Staphylococcus aureus USA 300 in TSB broth assessed as dispersal of glucose-induced biofilm preincubated with glucose for 48 hrs followed by compound addition and measured after 24 hrs by crystal violet staining based analysis; format: functional
Enterococcus faecalis [18] = assay: Inhibition of biofilm formation in vancomycin-resistant Enterococcus faecalis ATCC 51575 in TSB broth at 0.0078 to 4 ug/ml incubated for 48 hrs in presence of glucose by crystal violet staining based analysis; format: functional, organism-based; conditions: dose 0.0078-4 µg/ml
Enterococcus faecium [19] = assay: Antibiofilm activity against vancomycin-resistant Enterococcus faecium ATCC 700221 in TSB broth assessed as dispersal of glucose-induced biofilm preincubated with glucose for 48 hrs followed by compound addition and measured after 24 hrs by crystal violet staining based analysis; format: functional
Enterococcus faecium [20] = assay: Synergistic antibiofilm activity against vancomycin-resistant Enterococcus faecium ATCC 700221 in TSB broth assessed as dispersal of glucose-induced biofilm at 2 ug/ml preincubated with glucose for 48 hrs followed by compound addition and further incubated for 24 hrs in presence of 0.5 ug/ml Bithionol and AgNO3 by crystal violet staining based analysis; format: functional; conditions: dose 2 µg/ml
Enterococcus faecalis [21] = assay: Synergistic antibiofilm activity against vancomycin-resistant Enterococcus faecalis ATCC 51575 in TSB broth assessed as dispersal of glucose-induced biofilm by measuring fractional inhibitory concentration index preincubated with glucose for 48 hrs followed by compound addition and further incubated for 24 hrs in presence of Bithionol by crystal violet staining based checkerboard assay; format: functional
Enterococcus faecium [22] = assay: Antibiofilm activity against vancomycin-resistant Enterococcus faecium ATCC 700221 in TSB broth assessed as dispersal of glucose-induced biofilm at 8 to 16 ug/ml preincubated with glucose for 48 hrs followed by compound addition and measured after 24 hrs by crystal violet staining based analysis; format: functional; conditions: dose 8-16 µg/ml, at 8 to 16 µg/mL
Staphylococcus aureus [23] = assay: Synergistic antibiofilm activity against methicillin-resistant Staphylococcus aureus USA 300 in TSB broth assessed as dispersal of glucose-induced biofilm preincubated with glucose for 48 hrs followed by compound addition and further incubated for 24 hrs in presence of Nitroxoline by crystal violet staining based checkerboard assay; format: functional
Enterococcus faecalis [24] = assay: Antibacterial activity against vancomycin-resistant Enterococcus faecalis ATCC 51575 assessed as reduction in visible bacterial growth incubated for 18 to 20 hrs by CLSI based broth microdilution analysis; format: functional; conditions: time 18-20 hrs

For `Oc1ccc([C@@H]2Nc3ccc(S(F)(F)(F)(F)F)cc3[C@H]3[C@@H]4CC[C@@H](C4)[C@H]32)cc1`, which MBEC (Staphylococcus aureus [1]) is on record?
The MBEC was 1 µg/mL.

What about the Activity (Enterococcus faecium [2]) of the same compound?
The Activity was >70%.

What about the Activity (Staphylococcus aureus [3]) of the same compound?
Its Activity is >80%.

What about the MBC (Staphylococcus aureus [4]) of the same compound?
Its MBC is 2 µg/mL (≈ 4.79 µM).

What about the MIC (Staphylococcus aureus [4]) of the same compound?
The MIC was 1 µg/mL (≈ 2.4 µM).

And the “fractional inhibitory concentration index (FICI)” value (Enterococcus faecium [5])?
Its value is 0.28.

And the MBEC (Enterococcus faecium [6])?
Its MBEC is 1 µg/mL.

What about the MBC (Staphylococcus aureus [7]) of the same compound?
Its MBC is 2 µg/mL (≈ 4.79 µM).

And the MIC (Staphylococcus aureus [7])?
The MIC was 2 µg/mL (≈ 4.79 µM).

And the MBEC (Enterococcus faecalis [8])?
The MBEC was 4 µg/mL.

And the “fractional inhibitory concentration index (FICI)” value (Staphylococcus aureus [9])?
Its value is 0.25.

What about the Activity (Cell membrane) of the same compound?
The Activity was “Active”.

What about the MBEC (Enterococcus faecium [10]) of the same compound?
The MBEC was 4 µg/mL.

And the MBC (Staphylococcus aureus [11])?
Its MBC is 2 µg/mL (≈ 4.79 µM).

And the MIC (Staphylococcus aureus [11])?
Its MIC is 1 µg/mL (≈ 2.4 µM).

And the Activity (Staphylococcus aureus [12])?
The Activity was 70%.

And the MBC (Staphylococcus aureus [13])?
The MBC was 1 µg/mL (≈ 2.4 µM).

What about the MIC (Staphylococcus aureus [13]) of the same compound?
The MIC was 2 µg/mL (≈ 4.79 µM).

And the “fractional inhibitory concentration index (FICI)” value (Enterococcus faecium [14])?
Its value is 0.16.

And the inhibition (Enterococcus faecium [15])?
Its inhibition is “Active”.

And the MBC (Staphylococcus aureus [16])?
Its MBC is 2 µg/mL (≈ 4.79 µM).

And the MIC (Staphylococcus aureus [16])?
Its MIC is 2 µg/mL (≈ 4.79 µM).

What about the MBEC (Staphylococcus aureus [17]) of the same compound?
Its MBEC is 32 µg/mL.

What about the inhibition (Enterococcus faecalis [18]) of the same compound?
Its inhibition is “Active”.

And the MBEC (Enterococcus faecium [19])?
Its MBEC is 32 µg/mL.

And the Activity (Enterococcus faecium [20])?
Its Activity is >70%.

And the “fractional inhibitory concentration index (FICI)” value (Enterococcus faecalis [21])?
The value was 0.5.

What about the Activity (Enterococcus faecium [22]) of the same compound?
Its Activity is 70%.

What about the MBEC (Staphylococcus aureus [23]) of the same compound?
Its MBEC is 1 µg/mL.

And the MBC (Enterococcus faecalis [24])?
The MBC was 2 µg/mL (≈ 4.79 µM).

And the MIC (Enterococcus faecalis [24])?
The MIC was 2 µg/mL (≈ 4.79 µM).
